Assay results published in US20260210976A1, “METHOD TO DETECT AND TREAT PERIPHERAL NEUROPATHY” (Ohio State Innovation Foundation, priority 2022, published 2026).

What was measured:
[1] = test system: PSD95 and PGP9.5 protein expression in scWAT; test: Western blot of scWAT after daily intra-adipose CL316 243; format: in vivo; conditions: daily intra-adipose administration for 7 days
scWAT = test: Hematoxylin staining of scWAT sections; format: in vivo, mouse
Text: Intact inguinal scWAT (ing-scWAT), axillary scWAT (ax-scWAT), and perigonadal WAT (pgWAT) depots were excised from BL6 and HET3 mice, fixed in 10% buffered formalin overnight at room temperature and embedded in paraffin. Paraffin embedded tissues were sectioned 7 μm thick. Tissue sections were deparaffinized with HistoChoice Clearing Agent and hydrated in decreasing concentrations of EtOH (100%, 95% 70%, 30%, 0%). Tissues were stained in Mayer's Hematoxylin Solution (Sigma-Aldrich Cat #MHS16) or Mayer's Hemalum Solution (Sigma-Aldrich Cat #109249) and a drop of mounting fluid was applied, and tissues were cover slipped, sealed, and imaged. Three representative images were captured per tissue per animal and cell perimeter and area was measured in Fiji (Schindelin et al., 2012).

scWAT collagen = test: Picrosirius red staining and collagen birefringence quantification of scWAT; format: in vivo, mouse
Text: Intact scWAT and pgWAT depots were excised from BL6 and HET3 mice, fixed in 10% buffered formalin overnight at room temperature and embedded in paraffin. Paraffin embedded tissues were sectioned 7 μm thick. Tissue sections were deparaffinized with HistoChoice Clearing Agent (Sigma-Aldrich Cat #H2779) and hydrated in decreasing concentrations of EtOH (100%, 95% 70%, 30%, 0%). Tissues were stained in picrosirius red stain (Electron Microscopy Sciences Cat #26357) for 1 hr, washed in two changes of acidified water (5 seconds each), dehydrated in three changes of 100% EtOH, cleared in histo-grade Xylenes for 5 minutes and cover slipped using Permount mounting media (Electron Microscopy Sciences Cat #17986-01). Five representative images per tissue were captured using both brightfield and circularly polarized light to gauge collagen distribution. Total collagen was measured by first quantifying the area comprised by picrosirius red staining in the field of view using brightfield microscopy. This was then divided by the area comprised exclusively of polarized collagen fibers. […] To differentiate the relative contribution of collagen fiber thicknesses, methods were adapted from (Rich & Whittaker, 2005) for use in Fiji (Schindelin et al., 2012). Hue values used for this analysis were as follows: green (52-128), yellow (39-51), orange (10-38), and red (0-9, 230-255). Saturation was not accounted for, and brightness was thresholded at 35-255 to prevent noise from being included in pixel counts. See FIG. 11 for a schematic of this method.

[2] = Harrison et al., 2009; cited from earlier work
[3] = test system: diabetic NONcNZO10/LtJ mice; conditions: 14 ppm diet-fed (Reifsnyder, Doty, & Harrison, 2014); cited from earlier work

Row | Structure (SMILES) | PGP9.5 protein expression in scWAT [1] | PSD95 expression in scWAT [1] | crown-like structures, lipofuscin and immune cell infiltration in scWAT (scWAT; early-intervention group (started ~30 weeks)) | crown-like structures, lipofuscin and immune cell infiltration in scWAT (scWAT; late-intervention group (started ~72 weeks)) | total increase in collagen between treatment groups (scWAT collagen; early-intervention) | collagen deposition versus vehicle group (scWAT collagen; early-intervention group) | animals exhibiting severely fibrotic tissue (scWAT collagen; early-intervention, females) | animals exhibiting severely fibrotic tissue (scWAT collagen; early-intervention, males) | green collagen fibers (birefringence) (scWAT collagen; early-intervention, males) | orange collagen fibers (birefringence) (scWAT collagen; early-intervention, males) | thick collagen fibers (orange+red), share of thin:thick ratio (scWAT collagen; early-intervention, males) | thin collagen fibers, share of thin:thick ratio (scWAT collagen; early-intervention, males) | birefringence patterns (scWAT collagen; late-intervention) | total collagen (scWAT collagen; late-intervention, females) | total collagen (scWAT collagen; late-intervention, males, failed to meet statistical significance) | adipose tissue inflammation and fibrosis (scWAT collagen; overall statement) | scWAT fibrosis (scWAT collagen; treatment started early in life) | circulating rapamycin, males versus females [2] | pancreatic fibrosis [3]
1 | C[C@H](Cc1ccc2c(c1)OC(C(=O)[O-])(C(=O)[O-])O2)NC[C@H](O)c1cccc(Cl)c1.[Na+].[Na+] [CL316 243] | upward trend | increased |  |  |  |  |  |  |  |  |  |  |  |  |  |  |  |  | 
2 | CO[C@H]1C[C@@H]2CC[C@@H](C)[C@@](O)(O2)C(=O)C(=O)N2CCCC[C@H]2C(=O)O[C@H]([C@H](C)C[C@@H]2CC[C@@H](O)[C@H](OC)C2)CC(=O)[C@H](C)/C=C(\C)[C@@H](O)[C@@H](OC)C(=O)[C@H](C)C[C@H](C)/C=C/C=C/C=C/1C [rapamycin] |  |  | increased | not observed | not statistically significant | greater | 3 out of 11 | 3 out of 8 | decreased | increased | 75% | 25% | did not vary | no difference | possible increase | worsened | increased | equivalent | caused pancreatic fibrosis
